# From patent US10336761B2, “TGFβ receptor antagonist” (BRISTOL-MYERS SQUIBB COMPANY, priority 2015, dated 2019)
# Biological target: HIS-TGFβR1 T204D (Homo sapiens (Human), UniProt P36897, T204D)
# Experiment: HTRF probe-displacement assay, HIS-TGFβR1 T204D
# Assay type: binding
# Settings: 1 hour at room temperature
# Chain of HIS-TGFβR1 T204D (P36897 34-503 T204D): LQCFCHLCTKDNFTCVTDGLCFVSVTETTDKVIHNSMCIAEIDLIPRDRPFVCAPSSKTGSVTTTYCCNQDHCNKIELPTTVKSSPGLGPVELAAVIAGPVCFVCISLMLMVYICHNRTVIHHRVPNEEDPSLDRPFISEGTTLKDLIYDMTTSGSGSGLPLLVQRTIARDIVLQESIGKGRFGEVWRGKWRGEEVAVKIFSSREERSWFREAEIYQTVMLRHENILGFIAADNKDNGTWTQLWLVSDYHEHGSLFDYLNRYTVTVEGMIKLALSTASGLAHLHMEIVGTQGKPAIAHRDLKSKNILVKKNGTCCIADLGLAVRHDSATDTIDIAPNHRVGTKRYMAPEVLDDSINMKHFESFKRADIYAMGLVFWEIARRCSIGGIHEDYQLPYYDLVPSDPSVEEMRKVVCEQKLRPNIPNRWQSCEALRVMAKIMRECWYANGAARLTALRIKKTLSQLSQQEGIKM
row,IC50,SMILES
1,1.1 nM,"Fc1cnccc1Nc1nc(-c2ccccn2)nn2ccc(CNCC(F)(F)F)c12 [Example 268, 3-fluoro-N-[2-(pyridin-2-yl)-5-{[(2,2,2-trifluoroethyl)amino]methyl}pyrrolo[2,1-f][1,2,4]triazin-4-yl]pyridin-4-amine]"
2,1.6 nM,"Clc1cnccc1Nc1nc(-c2ccccn2)nn2cccc12 [Example 54, 3-chloro-N-[2-(pyridin-2-yl)pyrrolo[2,1-f][1,2,4]triazin-4-yl]pyridin-4-amine]"
3,17 nM,"O=C(NCCN1CCCC1)c1cnccc1Nc1nc(-c2cccc(C(F)(F)F)n2)nn2cccc12 [Example 170, N-[2-(pyrrolidin-1-yl)ethyl]-4-({2-[6-(trifluoromethyl)pyridin-2-yl]pyrrolo[2,1-f][1,2,4]triazin-4-yl}amino)pyridine-3-carboxamide]"
4,170 nM,"C[C@@H]1CN(CCNC(=O)c2cnccc2Nc2nc(-c3ccccn3)nn3cccc23)C[C@H](C)O1 [Example 146, N-{2-[cis-2,6-dimethylmorpholin-4-yl]ethyl}-4-{[2-(pyridin-2-yl)pyrrolo[2,1-f][1,2,4]triazin-4-yl]amino}pyridine-3-carboxamide]"
5,8.5 nM,"CN1CCN(CCCNC(=O)c2cnccc2Nc2nc(-c3cccc(C(F)F)n3)nn3cccc23)CC1 [Example 176, 4-({2-[6-(difluoromethyl)pyridin-2-yl]pyrrolo[2,1-f][1,2,4]triazin-4-yl}amino)-N-[3-(4-methylpiperazin-1-yl)propyl]pyridine-3-carboxamide]"
6,160 nM,"CC(C)(C)C(=O)Nc1cc(Nc2nc(-c3cccc(C(F)(F)F)n3)nn3cccc23)ccn1 [Example 342, 2,2-dimethyl-N-[4-({2-[6-(trifluoromethyl)pyridin-2-yl]pyrrolo[2,1-f][1,2,4]triazin-4-yl}amino)pyridin-2-yl]propanamide]"
7,45 nM,"O=C(NCCCN1CCOCC1)c1cnccc1Nc1nc(-c2cccc(C(F)(F)F)n2)nn2cccc12 [Example 169, N-[3-(morpholin-4-yl)propyl]-4-({2-[6-(trifluoromethyl)pyridin-2-yl]pyrrolo[2,1-f][1,2,4]triazin-4-yl}amino)pyridine-3-carboxamide]"
8,130 nM,"COc1cccc(-c2nc(Nc3ccncc3F)c3cc(NC(=O)CNS(C)(=O)=O)cn3n2)n1 [Example 110, N-{4-[(3-fluoropyridin-4-yl)amino]-2-(6-methoxypyridin-2-yl)pyrrolo[2,1-f][1,2,4]triazin-6-yl}-2-methanesulfonamidoacetamide]"
9,540 nM,"COc1cccc(-c2nc(Nc3ccncc3F)c3c(C(O)CNCCN4CCCCC4)ccn3n2)n1 (stereo not shown) [Example 130, 1-{4-[(3-fluoropyridin-4-yl)amino]-2-(6-methoxypyridin-2-yl)pyrrolo[2,1-f][1,2,4]triazin-5-yl}-2-{[2-(piperidin-1-yl)ethyl]amino}ethan-1-ol]"
10,370 nM,"CCNC(=O)Nc1cc2c(Nc3ccncc3F)nc(-c3cccc(OC)n3)nn2c1 [Example 72, 3-ethyl-1-{4-[(3-fluoropyridin-4-yl)amino]-2-(6-methoxypyridin-2-yl)pyrrolo[2,1-f][1,2,4]triazin-6-yl}urea]"
11,28 nM,"FC(F)(F)c1cccc(-c2nc(Nc3ccncn3)c3cccn3n2)n1 [Example 255, N-{2-[6-(trifluoromethyl)pyridin-2-yl]pyrrolo[2,1-f][1,2,4]triazin-4-yl}pyrimidin-4-amine]"
12,1.2 nM,"Fc1cnccc1Nc1nc(-c2ccccn2)nn2ccc(CN3CCOCC3)c12 [Example 290, 3-fluoro-N-[5-(morpholin-4-ylmethyl)-2-(pyridin-2-yl)pyrrolo[2,1-f][1,2,4]triazin-4-yl]pyridin-4-amine]"
13,26 nM,"O=C(NCc1cocn1)c1cnccc1Nc1nc(-c2cccc(C(F)F)n2)nn2cccc12 [Example 195, 4-({2-[6-(difluoromethyl)pyridin-2-yl]pyrrolo[2,1-f][1,2,4]triazin-4-yl}amino)-N-(1,3-oxazol-4-ylmethyl)pyridine-3-carboxamide]"
